Assay results from PMC3375340 (Journal of Medicinal Chemistry, 2012).
pIC50: −log10 of the molar value. ≈ marks a conversion by molar mass, not a printed value.

Legend:
[1] = test system: M. tuberculosis electron transport system; experiment: Oxygen consumption assay; format: cell-based; details: for electron transport system inhibition (conclusion): from oxygen consumption assay
[2] = test system: M. bovis, M. intracellulare, and M. smegmatis; format: cell-based, Mycobacterium species
[3] = target: M. tuberculosis MenA (Mycobacterium tuberculosis, UniProt P9WIP3); experiment: MenA enzyme inhibitory assay; format: biochemical; details: for pIC50: MenA Inhibition IC50, Mtb MenA, dose-response of DMMK formation
[4] = test system: M. bovis BCG; experiment: microbe, parasite or virus in culture; format: cell-based; details: Mycobacterium tuberculosis variant bovis BCG
[5] = test system: M. intracellulare ATCC15984; experiment: MIC, Mycobacterium species panel; format: cell-based
[6] = in vitro; details: monkey
[7] = test system: M. tuberculosis H37Rv; experiment: Microplate alamar blue assay; format: cell-based; details: Mycobacterium tuberculosis, read-out: MIC against Mtb (MABA)
[8] = test system: M. tuberculosis H37Rv; experiment: MIC, Mycobacterium species panel; format: cell-based

M. tuberculosis MenA, sequence (P9WIP3 whole entry): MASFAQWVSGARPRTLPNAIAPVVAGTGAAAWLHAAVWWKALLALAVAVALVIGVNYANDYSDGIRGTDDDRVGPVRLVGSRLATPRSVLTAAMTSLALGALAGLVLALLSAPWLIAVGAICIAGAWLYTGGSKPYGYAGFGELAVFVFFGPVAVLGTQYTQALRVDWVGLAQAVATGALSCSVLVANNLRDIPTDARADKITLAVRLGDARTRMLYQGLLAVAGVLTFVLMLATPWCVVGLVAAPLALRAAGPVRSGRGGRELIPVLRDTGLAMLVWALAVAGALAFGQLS

## CCCCCC[C@H](CN1CCC(COc2cccc(C(=O)c3ccc(Cl)cc3)c2)CC1)OC(N)=O [(R)-12, (R)-1-(4-((3-(4-chlorobenzoyl)phenoxy)methyl)piperidin-1-yl)octan-2-yl carbamate]
[1]
  electron transport system inhibition (conclusion): very weak (or are not) electron transport system inhibitors
[2]
  killing concentration, other Mycobacterium species: 3.0~6.5 μg/mL
[3]; Mtb MenA IC50 comparison
  fold better MenA enzyme inhibitory activity compared to the alcohol (R)-11: 6 fold

## CCCCCC[C@H](CN1CCC(COc2cccc(C(=NOC)c3ccc(Cl)cc3)c2)CC1)OC(N)=O [(R)-13, (R)-1-(4-((3-((4-Chlorophenyl)(methoxyimino)methyl)phenoxy)methyl)piperidin-1-yl)octan-2-yl carbamate]
[4]
  MIC: 2.95 µg/mL (≈ 5.56 µM)
[5]
  MIC: 6.5 µg/mL (≈ 12.3 µM)
[2]
  killing concentration, other Mycobacterium species: 3.0~6.5 μg/mL
[6]
  selectivity ratio: > 10
[7]
  MIC: 2.31 µg/mL (≈ 4.36 µM)
[3]
  pIC50: 5.92

## CCCCCCC[C@@H](O)c1cccc(CN2CCC(COc3cccc(C(=NOC)c4ccc(Cl)cc4)c3)CC2)c1 [(R)-15, (R)-(4-chlorophenyl)(3-((1-(3-(1-hydroxyoctyl)benzyl)piperidin-4-yl)methoxy)phenyl)methanone O-methyl oxime]
[3]
  pIC50: 4.82

## CCCCCC[C@H](CN1CCC(COc2ccc(C(=O)c3ccc(Cl)cc3)c(Cl)c2)CC1)OC(N)=O [(R)-17, (R)-1-(4-((3-chloro-4-(4-chlorobenzoyl)phenoxy)methyl)piperidin-1-yl)octan-2-yl carbamate]
[1]
  electron transport system inhibition (conclusion): very weak (or are not) electron transport system inhibitors

## CCCCCCC[C@@H](O)c1cccc(CN2CCC(COc3ccc(C(=NOC)c4ccc(Cl)cc4)c(Cl)c3)CC2)c1 [(R)-20, (R)-(2-Chloro-4-((1-(3-(1-hydroxyoctyl)benzyl)piperidin-4-yl)methoxy)phenyl)(4-chlorophenyl) methanone O-methyl oxime]
[3]
  pIC50: 4.82

## CCCCCCC[C@H](O)c1cccc(CN2CCC(COc3cccc(C(=O)c4ccc(Cl)cc4)c3)CC2)c1 [(S)-3, (S)-(4-chlorophenyl)(3-((1-(3-(1-hydroxyoctyl)benzyl)piperidin-4-yl)methoxy)phenyl) methanone]
[3]
  pIC50: 4.70

## CCCCCC[C@@H](CN1CCC(COc2ccc(C(=O)c3ccc(Cl)cc3)c(Cl)c2)CC1)OC(N)=O [(S)-17]
[1]; Mtb, 37 °C, 22h, above the MIC
  concentration showing decolorization of methylene blue: 12.5 µg/mL

## CCCCCCC[C@H](O)c1cccc(CN2CCC(COc3ccc(C(=NOC)c4ccc(Cl)cc4)c(Cl)c3)CC2)c1 [(S)-20, (S)-(2-Chloro-4-((1-(3-(1-hydroxyoctyl)benzyl)piperidin-4-yl)methoxy)phenyl)(4-chlorophenyl) methanone O-methyl oxime]
[3]
  pIC50: 4.70

## NNC(=O)c1ccncc1 [INH, isoniazid]
[8]
  MIC: 0.24 µg/mL (≈ 1.75 µM)
